Assay results taken from patent US20250136617A1 (The Regents of the University of Colorado, A Body Corporate, priority 2022, published 2025).
Read-outs that look alike come from different tables or passages of the source.

Key:
[1] = test system: CEM-CCRF human lymphoblast cells; test: Transwell migration assay in CEM-CCRF lymphoblasts; type: cell-based; details: for EC50: read-out: Migration CEM EC50
Description: Thus, to confirm CXCR4 functional activity, UCUF-728 was evaluated in a 96 w transwell migration assay in CEM human lymphoblast cells.
CEM-CCRF (ATCC CCL-119) were suspended in RPMI 1640 (Corning; 10-040-CV) at 5.0×10^5 cells/mL and allowed to incubate in cell culture incubator at 37° C. with 5% CO2 for one hour. […] Plates were reassembled and placed in a cell culture incubator at 37° C. with 5% CO2 for three hours. After incubation, Multi-Screen plate was disassembled and 100 μl of solution was collected from compound receiver tray and transferred to 96 well luminescent plate (Thermo Scientific; 265302) and an equal volume of ATPLite Istep luminescence reagent (Perkin Elmer, Waltham, MA; 6016731) was added to each well. Luminescence was measured using the CLARIOstar Plus (BMG LABTECH Inc., Cary, NC).

[2] = target: CXCR4 (Homo sapiens, UniProt P61073); test: β-arrestin recruitment, 384-well, Tango CXCR4-bla U2OS cells, normalized to SDF-1α; type: cell-based; design: host or cells: U2OS; details: for Emax: U2OS, read-out: TANGO β-arrestin Emax (%); for ß-arrestin recruitment Emax (%): normalized to maximal SDF-1α response
Chain of CXCR4 (P61073 whole entry): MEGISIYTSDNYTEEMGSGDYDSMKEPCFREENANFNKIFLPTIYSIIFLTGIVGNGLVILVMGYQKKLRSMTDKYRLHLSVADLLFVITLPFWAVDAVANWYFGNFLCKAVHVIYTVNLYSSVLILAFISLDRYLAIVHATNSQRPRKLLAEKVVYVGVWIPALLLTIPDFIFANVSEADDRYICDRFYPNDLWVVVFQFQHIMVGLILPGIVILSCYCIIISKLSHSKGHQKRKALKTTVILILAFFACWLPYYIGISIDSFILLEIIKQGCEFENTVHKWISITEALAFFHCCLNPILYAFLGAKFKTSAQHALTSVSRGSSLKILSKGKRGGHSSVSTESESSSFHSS
Description: Tango™ CXCR4-bla U2OS Cells (Invitrogen; K1779) were used for (β-arrestin recruitment assays and maintained as a monolayer culture in McCoy's 5a (Corning; 10-050-CV) supplemented with 10% dialyzed Fetal Bovine Serum (Gibco; 26400-044), 0.1 mM MEM Non-essential amino acids solution, 25 mM HEPES solution (Corning; 25-060-CI), 1 mM Sodium Pyruvate (Gibco; 11360-070), 200 μg/mL Zeocin selection reagent (Gibco; R25001), 50 μg/mL Hygromycin B (Gibco, 10687010), and 100 μg/mL Geneticin (G418 Sulfate) (Gibco, 10131035). U2OS cells were subcultured twice weekly by 0.05% Trypsin-EDTA treatment (Corning; 25-051-CI) and passaged to continue exponential growth phase for cell signaling assays. All cell cultures were maintained in cell culture incubators at 37° C. with 5% CO2. CHO-K1 CXCR4 cells (DiscoverX, Fremont, CA, USA) were used for cAMP inhibition assays and maintained as a monolayer culture in DMEM/F12 (Corning; 10-091-CV) supplemented with 10% Fetal Bovine Serum (Corning; 35-011-CV) and 100IU penicillin, […] streptomycin sulfate (Corning; 30-002-CI) and […] G418 (Gibco; 101310350. Cells were subculture 2 times weekly by o.o5% Trypsin-EDTA treatment (Corning; 25-051-CI) and passaged to continue exponential growth phase for cell signaling assays. All cell cultures were maintained in cell culture incubators at 37° C. with 5% CO2.CEM-CCRF cells (ATCC CCL-119) were used in both the migration and calcium flux assays and were cultured in growth media consisting of RPMI 1640 (Corning; 10-040-CV) supplemented with 10% Fetal Bovine Serum (Corning; 35-011-CV), and 100 IU penicillin, […] streptomycin sulfate (Corning; 30-002-CI). Cells were maintained in suspension and sub-cultured twice weekly to maintain cell densities between 0.8×10^6 cells/mL and 2.5×10^6 cells/mL to maintain exponential growth phase. Cells were harvested for use in migration and calcium flux assays at 2.0×10^6 cells/mL to 2.5×10^6 cells/mL and resuspended in assay media to desired density for respective experiments.
Tango™ CXCR4-bla U2OS Cells were resuspended in assay media consisting of DMEM (Corning; Corning, NY) supplemented with 1% dialyzed Fetal bovine serum, 0.1 mM MEM Non-essential amino acids solution, 25 mM HEPES solution (Corning; Corning, NY), 1 mM Sodium Pyruvate and 100 IU penicillin, […] streptomycin sulfate (Corning; Corning, NY) at a density of 3.0×10^5 cells/ml. Assay media FreeStyle 293 expression Medium (Gibco; 12338018) was used for testing the thiadiazine scaffold CXCR4 agonists. Cells suspension was dispensed at 30 μl per well into assay plate and incubated overnight in a cell culture incubator at 37° C. with 5% CO2. […] Following overnight incubation, LiveBlazer FRET B/G Loading Kit (Invitrogen; K1095) working reagent was prepared according to supplier guidelines and 6 μl of solution was dispensed into each well; 8 μL of solution for testing the thiadiazine scaffold CXCR4 agonists. Assay plate was covered and incubated in a dark place for two hours and Fluorescence Intensity was measured using the BMG LABTECH CLARIOstar Plus (BMG LABTECH Inc., Cary, NC) according to the LiveBlazer FRET B/G Loading Kit excitation and emission measurement guidelines.
Results are expressed as mean±SD for 3 to 5 independent experiments. Statistically significant differences in gene expression between two groups were assessed by Student's T-test, ANOVA with an appropriate post hoc test was be used for multiple comparisons. P<0.05 was considered to be statistically significant. All concentration response curves were analyzed to determine EC50 and Emax using the following equation:
where Y is the normalized response (0-100%), X is the log of concentration of compound tested, and the Hill slope is equal to 1.0% and 100% activity are specific to each assay. […]

[3] = normalized to SDF-1, read-out: TANGO β-arrestin EC50
[4] = normalized to SDF-1α, read-out: ß-arrestin recruitment EC50

SMILES	EC50 [1] [µM]	TANGO β-arrestin Emax (%) ([2]; normalized to SDF-1)	EC50 [2, 3] [µM]	EC50 ([1]; Homo sapiens) [µM]	Emax ([2]; normalized to SDF-1) [%]	EC50 [2, 4] [µM]	ß-arrestin recruitment Emax (%) [2] [%]	Migration CEM Emax (%) [1]	Emax ([1]; Homo sapiens) [%]
CCOc1ccccc1-c1nnc2n1N=C(c1ccc(NC(=O)C3CC3)cc1)CS2 [Entry 32]	< 5	A (A ≥ 70)	< 5					C (C ≤ 35)	
CCOc1ccccc1-c1nnc2n1N=C(c1ccc(NC(=O)c3ccccc3C(=O)O)cc1)CS2 [Entry 35]			> 10	> 10					
CCOc1ccccc1-c1nnc2n1N=C(c1ccc(NC(=O)c3cccc(C(=O)OC)c3)cc1)CS2 [Entry 36]			> 10	> 10					
CCOc1ccccc1-c1nnc2n1N=C(c1ccc(NC(=O)c3ccc(C(=O)OC)cc3)cc1)CS2 [Entry 37]			> 10	> 10					
CCOC(=O)CNc1ccc(C2=Nn3c(nnc3-c3ccccc3OCC)SC2)cc1 [Entry 40]	5 to 50	C (C ≤ 35)	< 5			> 5		C (C ≤ 35)	
CCOC(=O)CCNc1ccc(C2=Nn3c(nnc3-c3ccccc3OCC)SC2)cc1 [Entry 41]			< 5	< 5	35 to 70				< 35
C#CCCCNc1ccc(C2=Nn3c(nnc3-c3ccccc3OCC)SC2)cc1 [Entry 43]		C (C ≤ 35)	< 5					C (C ≤ 35)	
CCOc1ccccc1-c1nnc2n1N=C(c1ccc(NC3CCCCC3)cc1)CS2 [Entry 46]	< 5	C (C ≤ 35)	< 5			0.77	10	C (C ≤ 35)	
CCOc1ccccc1-c1nnc2n1N=C(c1ccc(NCc3ccccc3)cc1)CS2 [Entry 47]			> 10	> 10					
CCOc1ccccc1-c1nnc2n1N=C(c1ccc(NCC3CCCC3)cc1)CS2 [Entry 49]	> 10		> 10						
CCOc1ccccc1-c1nnc2n1N=C(c1ccc(C(=O)Nc3ccccc3)cc1)CS2 [Entry 69]			< 5	< 5	< 35				35 to 70
CCOc1ccccc1-c1nnc2n1N=C(c1ccc(C(=O)O)cc1)CS2 [Entry 70]			> 10	< 5					35 to 70

Further lines, with some results ahead:

EC50 [1] [µM]	TANGO β-arrestin Emax (%) ([2]; normalized to SDF-1)	EC50 [2, 3] [µM]	EC50 ([1]; Homo sapiens) [µM]	Emax ([2]; normalized to SDF-1) [%]	EC50 [2, 4] [µM]	ß-arrestin recruitment Emax (%) [2] [%]	SMILES	Migration CEM Emax (%) [1]	Emax ([1]; Homo sapiens) [%]
		< 5	< 5	35 to 70			CCOc1ccccc1-c1nnc2n1N=C(c1ccc(NC(=O)c3ccccc3)cc1)CS2 [Entry 34]		< 35
< 5	C (C ≤ 35)	< 5			1.4	31	CCOc1ccccc1-c1nnc2n1N=C(c1ccc(NC3CCCC3)cc1)CS2 [Entry 45]	C (C ≤ 35)	
		< 5	> 10	< 35			CCOc1ccccc1-c1nnc2n1N=C(c1ccc(NCC3CC3)cc1)CS2 [Entry 48]		
		< 5		< 35			CCOc1ccccc1-c1nnc2n1N=C(c1ccc(N3CCCC3=O)cc1)CS2 [Entry 63]		35 to 70
< 5	C (C ≤ 35)	> 10					CCOC(=O)C1CCN(c2ccc(C3=Nn4c(nnc4-c4ccccc4OCC)SC3)cc2)C1 (stereo not shown) [Entry 66]	B (35 < B < 70)	
		< 5	< 5	< 35			CCOc1ccccc1-c1nnc2n1N=C(c1ccc(C(=O)OC)cc1)CS2 [Entry 71]		35 to 70
		< 5	< 5	< 35			COc1ccc(OC)c(-c2nnc3n2N=C(c2ccc(N4CCC4)cc2)CS3)c1 [Entry 80]		35 to 70
